Tests used:
[1] = test system: PKAII; experiment: Relative affinity for PKAII (cAMP = 1), in vitro; type: binding; conditions: relative to cAMP = 1
[2] = test system: Ovcar3 cells; experiment: Adhesion assay of Ovcar3 cells to fibronectin; type: cell-based
Method: A: 8-pCPT-2′-O-Me-cAMP stimulates cell adhesion. Upper panel: quantification of Ovcar3 cells adhering to fibronectin after treatment with increasing concentrations of 8-pCPT-2′-O-Me-cAMP. Lower panel: Ovcar3 cells were treated with increasing concentrations of 8-pCPT-2′-O-Me-cAMP for 15 min, cells were lysed and analyzed for activation of Rap1 (upper blot) and CREB (lower blot). Total Rap1 levels are shown (middle blot). B: 8-pCPT-2′-O-Me-cAMP increases the rate of cell adhesion. Upper panel: quantification of Ovcar3 cells adhering to fibronectin at various time points. Lower panel: cells were treated with 60 μM 8-pCPT-2′-O-Me-cAMP for the indicated times. Cell lysates were analyzed for activation of Rap1 (upper blot) and CREB (lower blot). Total levels of Rap1 in cell lysates are shown (middle blot). C: Ovcar3 cells were either pre-incubated at 37° C. for 30 min with the PKA inhibitor H-89 (10 μM) 30 min prior to seeding onto the wells (‘Short’) or H-89 was added 30 min prior to trypsinization and during the recovery period (‘Long’) and seeded onto wells in the absence or presence of 8-pCPT-2′-O-Me-cAMP (100 μM). Cells were allowed to adhere for 1 h. D, cAMP-induced adhesion to fibronectin is blocked by inhibitors of Rap1. Left panel: Ovcar3 cells were transiently transfected with either mock DNA, increasing concentrations of HA-Rap1GAP II (0.5, 1, 2 or 6 μg, respectively), HA-Rap1GAPI (6 μg) or HA-RBD of RalGDS (6 μg), respectively. Cells were treated with 8-Br-cAMP or 8-pCPT-2′-O-Me-cAMP and adhesion to fibronectin was determined. […]
In functional assays, 8-pCPT-2′-O-Me-cAMP appeared to induce integrin-mediated cell adhesion through Epac and Rap1. […] The cells were seeded onto fibronectin-coated plates in the presence or absence of 8-pCPT-2′-O-Me-cAMP and the amount of cells that adhered after a certain period of time was quantified. […]
24-well plates were coated overnight with 2 μg/ml fibronectin (Sigma, St. Louis, Mo., USA) in sodium bicarbonate buffer (Sigma, St. Louis, Mo., USA). […] Cells were centrifuged, counted and resuspended at 3×10^5 cells/ml in serum-free RPMI with 0.5% BSA. […]

[3] = target: T1, Epac1-ΔDEP1 (Homo sapiens, UniProt O95398); experiment: In vitro GEF assay: Epac activity in the exchange reaction towards Rap (mantGDP-loaded Rap1b); type: biochemical; on Relative activity of Epac*: key: +++: activity comparible to I-007; ++: activity between I-007 and cAMP; +: activity comparible to cAMP; ±: activity less than cAMP
T1 sequence (O95398 191-923 limits assumed): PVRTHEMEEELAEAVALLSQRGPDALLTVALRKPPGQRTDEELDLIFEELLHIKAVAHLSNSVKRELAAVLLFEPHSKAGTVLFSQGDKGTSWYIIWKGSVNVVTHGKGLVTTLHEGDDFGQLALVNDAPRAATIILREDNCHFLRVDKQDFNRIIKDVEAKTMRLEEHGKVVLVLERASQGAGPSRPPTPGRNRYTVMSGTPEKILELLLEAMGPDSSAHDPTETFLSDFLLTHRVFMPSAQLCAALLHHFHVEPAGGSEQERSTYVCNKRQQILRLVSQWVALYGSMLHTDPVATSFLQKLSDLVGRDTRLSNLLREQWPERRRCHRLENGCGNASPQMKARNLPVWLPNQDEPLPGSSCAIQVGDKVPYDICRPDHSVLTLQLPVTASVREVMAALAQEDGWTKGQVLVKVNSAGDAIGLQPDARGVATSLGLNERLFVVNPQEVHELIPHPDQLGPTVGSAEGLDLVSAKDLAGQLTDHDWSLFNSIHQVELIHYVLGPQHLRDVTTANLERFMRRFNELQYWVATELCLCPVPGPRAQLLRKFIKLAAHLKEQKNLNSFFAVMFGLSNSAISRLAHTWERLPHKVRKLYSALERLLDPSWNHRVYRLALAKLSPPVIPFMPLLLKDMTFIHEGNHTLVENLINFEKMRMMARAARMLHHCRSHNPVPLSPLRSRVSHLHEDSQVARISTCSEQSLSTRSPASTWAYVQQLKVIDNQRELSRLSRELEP
Method: In vitro GEF assays were performed as described (3,16). […] Buffer conditions were 50 mM Tris pH7.4, 150 mM NaCl, 5% glycerol, 5 mM DTE, 60 μM GTP. Reactions were carried out in 96-well plates and measured in a Cary Eclipse from Varian Inc., using the manufacturers software.

[4] = test system: type I holoenzyme of PKA (PKAI); experiment: In vitro activation of cAMP-dependent protein kinase, type I holoenzyme (kemptide substrate); type: biochemical; conditions: compared to cAMP, FIG. 5
Method: Cyclic AMP dependent protein kinase I and II were reconstituted from isolated subunits and assayed for kinase activity using […] kemptide as substrate, as described previously (15).

Q: For `CO[C@@H]1[C@@H]2OP(=O)(O)OC[C@H]2O[C@H]1n1c(Sc2ccc(Cl)cc2)nc2c(N)ncnc21` [Compound I-007, 8-(4-chloro-phenylthio)-2′-O-methyladenosine-3′,5′-cyclic monophosphate], which “Relative affinity CAMP = 1 PKAII” value [1] is on record?
A: 0.003

Q: What about the EC50 ([2]; Homo sapiens, OVCAR-3, FIG. 7A, read-out: EC50 of enhanced cell adhesion to fibronectin) of the same molecule?
A: ~30 µM

Q: And the “time after which increased adhesion was already observed” value ([2]; fibronectin, time-course, FIG. 7B)?
A: 30 min

Q: And the “maximal activity of Epac1 compared to cAMP” value ([3]; in vitro)?
A: three-fold higher

Q: And the “Relative activity of Epac*” value ([3]; in vitro in the exchange reaction towards Rap)?
A: +++

Q: And the EC50 ([3]; in vitro, FIG. 4, read-out: Half-maximal activation of Epac1)?
A: 2.2 µM

Q: What about the “ability to activate the type I holoenzyme of PKA” value [4] of the same molecule?
A: greatly impaired
